Measured values from PubChem BioAssay AID179 (DTP/NCI, 2004).
“And” between values parts separate entries of the source, which are not always exact repeats. Equal entries are not always repeated. The source made the active and inactive calls.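 Rule for the calls: active = compounds giving half or more protection of infected cells from virus-caused growth loss, again on retest; inactive = the rest.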

Test system: CEM cells HIV-1 protection, formazan growth assay
Assay: NCI AIDS Antiviral Assay
Settings: for IC50: measured here: growth of uninfected CEM cells
How it was run: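 Screen of anti-HIV-1 activity in human CEM cells using a formazan-based growth measurement at five drug concentrations. Hits with 50% or greater protection were repeated, and confirmation required reproducible complete protection.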

Row | SMILES | EC50 | IC50 | outcome
1 | C=C(Cl)c1c(OC)cccc1OCc1ccccc1 | > 200 µM | 97.7 µM | 
2 | N#Cc1c(N=C/C=C/c2ccccc2)c(C(=O)Nc2ccccc2)n2c1CCCC2 | > 200 µM | > 200 µM | 
3 | O=[N+]([O-])c1cccc(C2=NOC(C3CCCCC3)C2)c1 (stereo not drawn) | > 36.3 µM | > 36.3 µM | 
4 | O=C(N/N=C\c1cccnc1)c1ccncc1 | > 200 µM | > 200 µM | 
5 | COc1cccc(N2C(=O)C3C4C=C5c6ccccc6N(c6ccccc6)C5(C3C2=O)[C@H]2C(=O)N(c3cccc(OC)c3)C(=O)[C@@H]42)c1 (stereo partly drawn) | > 4.37 µM | > 4.37 µM | 
6 | O=C(O)c1nc(-c2ccccc2)ncc1-c1nnnn1-c1ccccc1 | > 200 µM | > 200 µM | 
7 | O=C(O)c1cc(/C=C/c2ccc(N=Nc3c(O)cc(O)cc3C(=O)O)c(C(=O)O)c2)ccc1N=Nc1c(O)cc(O)cc1C(=O)O | 16.6 µM and 3.89 µM | > 100 µM and 95.5 µM | 
8 | NC(=S)C1=C(N)Oc2c(c(=O)oc3ccccc23)C1c1ccc(Br)cc1 (stereo not drawn) | > 200 µM | 126 µM | 
9 | NC(N)=NCCN1CCCCCc2ccccc21 | > 200 µM | 20.9 µM | 
10 | NNC(=S)N/N=C(\CCCC(=O)NCCc1ccccc1)CC(=O)c1ccccc1 | > 219 µM | > 219 µM | 
11 | COC(=O)/C=C1/Nc2c(n(C)c(=O)n(C)c2=O)NC1=O | > 200 µM | > 200 µM | 
12 | CC(=O)O[C@H]1CC[C@@]2(C)C(=CC[C@@H]3C2CC[C@@]2(C)C3CC[C@@H]2c2nc(C)cs2)C1 (stereo partly drawn) | > 60.3 µM | > 60.3 µM | 
13 | O=C(O)[C@@H]1OCCOCCO[C@@H](C(=O)O)[C@H](C(=O)O)OCCOCCO[C@H]1C(=O)O | > 562 µM | > 562 µM | 
14 | COc1cc(OC)c2c(O)c3c(cc2c1)CC(C)(C)CC3=O | > 2 µM | 1.38 µM | 
15 | CCCCNC(=S)N/N=C/c1cccc(C)n1 | > 200 µM | 12 µM | 
16 | C=CCCC1CCCCC/C1=N\N(C)C (stereo not drawn) | > 200 µM | > 200 µM | 
17 | CCOC(=O)c1c(N=P(c2ccccc2)(c2ccccc2)c2ccccc2)nnc(-c2ccccc2)c1-c1ccccc1 | > 100 µM | > 100 µM | 
18 | O=C(C1C(c2ccccc2)N1C(c1ccccc1)c1ccccc1)C1C(c2ccccc2)N1C(c1ccccc1)c1ccccc1 (stereo not drawn) | > 3.39 µM | > 3.39 µM | 
19 | O=C1NN(c2ccccc2)[C@@H]2CCCC[C@H]12 | > 437 µM | > 437 µM | 
20 | O=C1C(=Cc2c[nH]c3ccccc23)C(=O)c2ccccc21 | > 200 µM | 191 µM | 
21 | COc1nc(=O)n(C)cc1B(O)O | > 200 µM | 32.4 µM | 

Row | SMILES | EC50 | IC50 | outcome
22 | CCC(CCCC[C@@H]1CC[C@H]2CC(=O)C[C@@H]12)OC (stereo partly drawn) | > 200 µM | 151 µM | 
23 | CCC[C@H]1C(=O)N=C(N)N1C(=O)OCc1ccccc1 | > 200 µM | > 200 µM | 
24 | Cc1ccc(C(=O)CC2=Nc3nnc(CCCCCCCc4nnc5n4C(=O)C(CC(=O)c4ccc(C)cc4)=N5)n3C2=O)cc1 | > 2.4 µM | > 2.4 µM | 
25 | O=c1[nH]cnc2c1C(c1ccccc1)c1ccccc1-2 (stereo not drawn) | > 38 µM | > 38 µM | 
26 | CC1(C)O[C@@H](CCl)C[C@@H](C#N)O1 |  |  | inactive
27 | CC(=O)/C(=C/c1ccccc1Cl)C(=O)c1ccccc1 | > 91.2 µM | 19.1 µM | 
28 | CCOC(=O)CSc1nc(-c2ccccc2)c(C#N)c(=O)[nH]1 |  |  | inactive
29 | CSc1nc2c(c(=O)[nH]1)N=C(c1ccc([N+](=O)[O-])cc1)CC(c1ccccc1)N2 (stereo not drawn) |  |  | inactive
30 | O=c1cc(-c2ccccc2)oc2c(-c3cc(Cl)cc4c(=O)cc(-c5ccccc5)oc34)cc(Cl)cc12 | > 200 µM | 38.9 µM | 
31 | C[Si](C)(C)/C=C/CCNC(C#N)c1ccccc1 (stereo not drawn) | > 20.4 µM | > 20.4 µM | 
32 | Cc1c(C(=O)CC(=O)C(=O)Nc2cc(Cl)ccc2Cl)[n+](=O)c2ccccc2n1[O-] | > 8.71 µM | > 8.71 µM | 
33 | CC1=CP(=O)(c2ccccc2)C=C(C)C1=C(Cl)Cl (stereo not drawn) |  |  | inactive
34 | Nc1nc(=S)[nH]c(N)c1N=O | 85.1 µM | 120 µM | 
35 | COc1ccc(/C=C/C(=O)C(C)C)cc1 | > 200 µM | 33.9 µM | 
36 | CC(=O)NC1C(OCc2ccccc2)OC(CO)C(O)C1OC(C)C(=O)NC(C)C(=O)N[C@H](CCC(=O)OCCNCCCNc1ccc([N+](=O)[O-])c2[nH]c3ccccc3c(=O)c12)C(N)=O (stereo partly drawn) | > 200 µM | 60.3 µM | 
37 | O=c1[nH]c(=O)n(C2OC(CO)C(O)C2O)c2ccsc12 (stereo not drawn) | > 200 µM | > 200 µM | 
38 | O=C1Nc2ccc(Br)cc2/C1=c1/sc2nc3ccccc3n2c1=O | > 50.1 µM | 42.7 µM | 
39 | Nc1nccc(NCC2(CO)CC(OCc3ccccc3)C2)n1 (stereo not drawn) | > 200 µM | > 200 µM | 
40 | COc1cccc(C2CO2)c1 (stereo not drawn) | > 200 µM | 151 µM | 
41 | COc1ccc2cccc(C(=O)c3ccc(C)c4c3CCC4)c2c1 |  |  | inactive
42 | CN(C)CCCC12CCCCC1=Nc1ccccc12 (stereo not drawn) | > 200 µM | 7.76 µM | 

Row | SMILES | EC50 | IC50 | outcome
43 | O=S(=O)(NCCSSCCNS(=O)(=O)c1cccs1)c1cccs1 | > 200 µM | 20 µM | 
44 | C/C([O-])=C\[P+](c1ccccc1)(c1ccccc1)c1ccccc1 | > 200 µM | 105 µM | 
45 | Cc1cn(CCCCOC(=O)NC(CCCNC(N)=O)C(=O)O)c(=O)[nH]c1=O (stereo not drawn) | > 200 µM | > 200 µM | 
46 | N#CCCCCCOCCOCCOCCOCCOCCCCCC#N |  |  | inactive
47 | Oc1ccc2ccccc2c1C1=NNc2n[nH]c(=S)n2N1 | > 148 µM | 19.1 µM | 
48 | CCOC(=O)C(N=Nc1ccc(S(N)(=O)=O)cc1)C(C)=O (stereo not drawn) | > 794 µM | 389 µM | 
49 | COc1ccc(-c2c(C3=NCCCN3)nnn2-c2ccc(Cl)cc2)cc1 | 14.1 µM | 85.1 µM | 
50 | C[C@H](N)C(O)C/C=C\C/C=C\C/C=C\C/C=C\C/C=C\C/C=C\CCCCCCC(O)[C@H](C)N (stereo partly drawn) |  |  | inactive
51 | Cc1cc(C)c2nc3c(c(C(O)C4CCCCN4)c2c1)CC/C3=C\c1ccc(Cl)cc1 (stereo not drawn) | > 22.9 µM | > 22.9 µM | 
52 | COc1ccc(C[C@@H]2NC[C@@H](O)[C@@H]2OC(C)=O)cc1 | > 4.17 µM | 0.017 µM | 
53 | O=C1c2[nH]c3ccc(Br)cc3c2CCN1Cc1ccc(Cl)cc1 | > 200 µM | 11.2 µM | 
54 | O=C(O)c1ccc(CS(=O)(=O)c2ccc([N+](=O)[O-])cc2)cc1 | > 22.4 µM | > 22.4 µM | 
55 | Cn1nc(-c2ccc(Cl)cc2)[n+]([O-])c2c(=O)n(C)c(=O)nc1-2 | > 200 µM | 3.31 µM | 
56 | COC(=O)C1=C(C(=O)OC)C2(C(=O)OC)OC1(OC)C(C1(C(=O)OC)C(C(=O)OC)=C1C(=O)OC)=C2C(=O)OC (stereo not drawn) |  |  | inactive
57 | CN(C)CC/C=C1\c2ccccc2CN(C)c2ccccc21 | > 200 µM | 33.1 µM | 
58 | N#CC1(C#N)C(c2ccc(C3C(C#N)(C#N)C3(C#N)C#N)cc2)C1(C#N)C#N |  |  | inactive
59 | Cn1cc(NC(=O)Nc2cc(C(=O)Nc3cc(C(=O)Nc4cc(S(=O)(=O)O)c5cc(S(=O)(=O)O)cc(S(=O)(=O)O)c5c4)n(C)c3)n(C)c2)cc1C(=O)Nc1cc(C(=O)Nc2cc(S(=O)(=O)O)c3cc(S(=O)(=O)O)cc(S(=O)(=O)O)c3c2)n(C)c1 | 4.68 µM | 224 µM | 
60 | O=C1C=C(c2c(-c3ccccc3)[nH]c3ccccc23)C(=O)N1c1ccccc1 | > 200 µM | 15.5 µM | 
61 | CC(=O)[O-].O=C([N-]/N=C\c1ccoc1)c1ccncc1.[Ni+2].[OH3+].[OH3+].c1ccncc1 | > 200 µM | > 200 µM | 
